{"source": "patent US10173999B2", "about": "“Cyclic amine derivative and pharmaceutical use thereof” (Toray Industries, Inc., priority 2015, dated 2019)", "key": {"[1]": {"assay": "Pharmacokinetics (PK) test in cynomolgus monkeys", "type": "in vivo, cynomolgus monkey", "experimental": "Cynomolgus monkeys (4 to 6 years old, male) were raised under the conditions of voluntary intake of solid food (Oriental Yeast Co., Ltd) and tap water and fasted from the evening of the day before initiation of administration and subjected to an experiment. Note that blood was sampled at 4 hours after administration (on and after 16:00), and thereafter feeding was restarted.\nDosing solution for intravenous administration was injected through the saphenous vein by use of a syringe needle (attached to a syringe barrel). The oral administration into the stomach was compulsively carried out by inserting a catheter into the nasal cavity.\nThe blood sampled was centrifuged at 4° C. and 1800×g for 15 minutes to obtain the plasma. The plasma thus obtained was stored at about −80° C. until use in preparation of analysis samples. The plasma obtained from a cynomolgus monkey to which a test compound was administrated, is referred to as a plasma sample; whereas the plasma obtained from a cynomolgus monkey to which a test compound was not administered, is referred to as the blank plasma.\n(§1) The resulting solution was vortexed and cooled at 4° C. for 10 minutes. A sample for a calibration curve was prepared by adding a standard solution for a calibration curve to the blank plasma and subjecting the resulting mixture to the same treatment. After cooling, each of the samples was spun at 4° C. and 2000 rpm for 10 minutes by a centrifuge (Hitachi Koki Co., Ltd.). The resulting supernatant was used as a sample for LC/MS/MS analysis.\nas §1, with “diluted 10 fold with 70 vol % acetonitrile containing 0.1 vol % formic acid and subjected” for “used”, “analysis. The LC/MS/MS analysis conditions were as follows:” for “analysis.”\nThe test-compound concentrations in the plasma at each sampling time point in the case of intravenous administration or oral administration were calculated and PK analysis was carried out for individual monkeys. PK parameters were calculated by using WinNonlin (Pharsight), in accordance with an analysis independent of a model (intravenous administration: Bolus IV Administration, oral administration: Extravascular Administration; Weight=1/y in both administrations). Furthermore, bioavailability (BA) was calculated based on the following Expression (3) by dividing AUC0-∞iv (time 0 to ∞) at the time of the intravenous administration and AUC0-∞po (time 0 to ∞) at the time of the oral administration by respective dose values to obtained as normalized values. Bioavailability (BA)=(AUC0-∞,po/dose)/(AUC0-∞,iv/dose) (3)"}, "[2]": {"test_system": "human aortic smooth muscle cells (T/G HA-VSMG)", "assay": "Inducibility of cytoplasmic vacuolation in human aortic smooth muscle cells", "type": "cell-based", "details": "Concentration: 1.0 mmol/L", "experimental": "As a test compound, the compound of Example 3, 9, 11, 12 or compounds of Comparative Examples 2 to 6 were used. Canine aortic smooth muscle cells (Canine Aortic Smooth Muscle Cells, supply source: Toyobo Co., Ltd.) or human aortic smooth muscle cells of (T/G HA-VSMG, supply source: ATCC) were treated with a test compound (1.0 or 1.2 mmol/L in concentration) for 24 hours or 2 weeks. The cells were stained with HE, immunohistochemically for LAMP-2 or toluidine blue, and thereafter the presence or absence of cytoplasmic vacuolation was determined by using an optical microscope."}}, "note": "“Also recorded” adds a separate entry of the source."}
{"smiles": "CN(C)C1CCN(C(=O)C[C@H](O)c2nccn2C)CC1", "note": "[Example 11, (S)-1-(4-(dimethylamino)piperidin-1-yl)-3-hydroxy-3-(1-methyl-1H-imidazol-2-yl)propan-1-one]", "values": [{"measurement": "mean plasma concentration after administration compared with Comparative Example 2", "setting": "[1]; cynomolgus monkeys, intravenous and oral 1 mg/kg, all time points", "value": "higher"}, {"measurement": "bioavailability", "setting": "[1]; male, plasma, cynomolgus monkey, 1 mg/kg oral vs 1 mg/kg intravenous, read-out: BA (bioavailability)", "value": 52.6, "unit": "%"}, {"measurement": "clearance", "setting": "[1]; male, plasma, cynomolgus monkey, intravenous administration 1 mg/kg, single, read-out: CLtot (total body clearance) (converted)", "value": 3.25, "unit": "mL/min/kg"}, {"measurement": "AUC(0-inf)", "setting": "[1]; male, plasma, cynomolgus monkey, oral administration 1 mg/kg, single", "value": 2730, "unit": "ng·h/mL"}, {"measurement": "Cmax", "setting": "[1]; male, plasma, cynomolgus monkey, oral administration 1 mg/kg, single, read-out: Cmax (maximum plasma concentration)", "value": 279, "unit": "ng/mL"}, {"measurement": "half-life", "setting": "[1]; male, plasma, cynomolgus monkey, oral administration 1 mg/kg, single, read-out: t1/2 (elimination half-life in the plasma) (converted)", "value": 7.55, "unit": "h"}, {"measurement": "Inducibility of cytoplasmic vacuolation", "setting": "[2]; Treatment time: 2 weeks", "value": "not observed; also recorded: Absent"}, {"measurement": "Inducibility of cytoplasmic vacuolation", "setting": "[2]; Treatment time: 24 hours", "value": "Absent"}]}
